Data as given in patent US9796700B2 (Celgene CAR LLC, priority 2013, dated 2017).

Biological target: Erk1 (Homo sapiens (Human), UniProt P27361)
Assay: Protein Mass Modification Assay (intact protein MALDI)
Type: binding
Description: Protein Mass Modification Assay
Intact protein: Erk1 from Millipore (Cat. No. 14-439) was incubated for 60 min. at room temperature with a 10-fold excess of test compound to protein. 4 μL aliquots of the resulting mixture were diluted with 15 μL of 0.2% TFA prior to micro C4 ZipTipping directly onto the MALDI target using sinapinic acid as the desorption matrix (10 mg/ml in 0.1% TFA:Acetonitrile 50:50, v/v). The centroid mass of the target protein in the control sample was compared with the centroid mass of the target protein incubated with compound. A shift in the centroid mass of the treated protein compared to the untreated protein was divided by the molecular weight of the compound. This number corresponds to the percentage of modified protein after one hour incubation. Results from this assay are reported in Table A under the column “ERK1 Mass Mod (%).”

Sequence of Erk1 (P27361 whole entry, looked up): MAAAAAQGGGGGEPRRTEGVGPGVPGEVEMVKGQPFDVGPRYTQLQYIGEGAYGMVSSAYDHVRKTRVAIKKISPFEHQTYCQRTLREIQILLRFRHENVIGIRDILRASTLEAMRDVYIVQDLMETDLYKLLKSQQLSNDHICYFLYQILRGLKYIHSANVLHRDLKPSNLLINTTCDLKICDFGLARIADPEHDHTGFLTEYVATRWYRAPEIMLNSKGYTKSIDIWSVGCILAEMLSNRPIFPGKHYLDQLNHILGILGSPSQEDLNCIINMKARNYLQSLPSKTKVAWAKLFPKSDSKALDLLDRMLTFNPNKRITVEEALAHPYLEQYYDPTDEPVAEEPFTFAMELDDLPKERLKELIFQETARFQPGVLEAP

| SMILES | ERK1 Mass Mod (%) |
| --- | --- |
| C=CC(=O)Nc1ccccc1Nc1nc(N[C@@H]2CCC[C@H](C(=O)NOCCO)C2)ncc1C(F)(F)F (racemic) [Compound I-4, Rac-cis-3-((4-((2-acrylamidophenyl)amino)-5-(trifluoromethyl)pyrimidin-2-yl)amino)-N-(2-hydroxyethoxy)cyclohexanecarboxamide] | F (provided a mass modification of 31-69%) |
| C=CC(=O)N[C@H]1CCCC[C@@H]1Nc1nc(N[C@H]2CCCN(C(=O)CO)C2)ncc1C(F)(F)F (racemic) [Compound I-27, Rac-N-(2-((2-(((R)-1-(2-hydroxyacetyl)piperidin-3-yl)amino)-5-(trifluoromethyl)pyrimidin-4-yl)amino)-trans-cyclohexyl)acrylamide] | F (provided a mass modification of 31-69%) |
| C=CC(=O)N(C)c1ccccc1Nc1nc(N[C@@H]2CCC[C@H](C(N)=O)C2)ncc1Cl (racemic) [Compound I-105, Rac-cis-3-((5-chloro-4-((2-(N-methylacrylamido)phenyl)amino)pyrimidin-2-yl)amino)cyclohexanecarboxamide] | F (provided a mass modification of 31-69%) |
| C=CC(=O)N(C)c1ccccc1Nc1nc(N[C@@H]2CCC[C@H](C(=O)NOC)C2)ncc1Cl (racemic) [Compound I-106, Rac-cis-3-((5-chloro-4-((2-(N-methylacrylamido)phenyl)amino)pyrimidin-2-yl)amino)-N-methoxycyclohexanecarboxamide] | F (provided a mass modification of 31-69%) |
| C/C=C/C(=O)Nc1cc(F)ccc1Nc1nc(N[C@@H]2CCC[C@H](C(N)=O)C2)ncc1Cl (racemic) [Compound I-113, Rac-cis-(E)-3-((4-((2-(but-2-enamido)-4-fluorophenyl)amino)-5-chloropyrimidin-2-yl)amino)cyclohexanecarboxamide] | F (key: E: provided a mass modification of ≧70%; F: provided a mass modification of 31-69%; G: proived a mass modification ≦30%) |
| C=C(C)C(=O)Nc1cc(F)ccc1Nc1nc(N[C@@H]2CCC[C@H](C(N)=O)C2)ncc1Cl (racemic) [Compound I-114, Rac-cis-3-((5-chloro-4-((4-fluoro-2-methacrylamidophenyl)amino)pyrimidin-2-yl)amino)cyclohexanecarboxamide] | F (provided a mass modification of 31-69%) |
| C=CC(=O)Nc1ccccc1Nc1nc(N[C@H]2CCC[C@@H](CO)C2)ncc1Cl (racemic) [Compound I-121, Rac-cis-N-(2-((5-chloro-2-((3-(hydroxymethyl)cyclohexyl)amino)pyrimidin-4-yl)amino)phenyl)acrylamide] | E (key: E: provided a mass modification of ≧70%; F: provided a mass modification of 31-69%; G: proived a mass modification ≦30%) |
| C=CC(=O)N[C@H]1CCCC[C@@H]1Nc1nc(N[C@H]2CCCN(C(=O)CO)C2)ncc1Cl (racemic) [Compound I-141, Rac-N-(2-((5-chloro-2-(((R)-1-(2-hydroxyacetyl)piperidin-3-yl)amino)pyrimidin-4-yl)amino)-trans-cyclohexyl)acrylamide] | E (provided a mass modification of ≧70%) |
| C=CC(=O)N[C@@H]1CCCC[C@H]1Nc1nc(Nc2cc(C(=O)NOC)ccc2C)ncc1Cl (racemic) [Compound I-188, Rac-trans-3-((4-((2-acrylamidocyclohexyl)amino)-5-chloropyrimidin-2-yl)amino)-N-methoxy-4-methylbenzamide] | F (provided a mass modification of 31-69%) |
| C=CC(=O)N[C@@H]1CCCC[C@H]1Nc1nc(Nc2cc(C(N)=O)ccc2C)ncc1C(N)=O (racemic) [Compound I-255, Rac-trans-4-((2-acrylamidocyclohexyl)amino)-2-((5-carbamoyl-2-methylphenyl)amino)pyrimidine-5-carboxamide] | F (provided a mass modification of 31-69%) |
| C=CC(=O)N[C@@H]1CCCC[C@H]1Nc1nc(Nc2cc(C(=O)NOCCO)ccc2C)ncc1C(N)=O (racemic) [Compound I-257, Rac-trans-4-((2-acrylamidocyclohexyl)amino)-2-((5-((2-hydroxyethoxy)carbamoyl)-2-methylphenyl)amino)pyrimidine-5-carboxamide] | G (proived a mass modification ≦30%) |
| C=CC(=O)N[C@@H]1CCCC[C@H]1Oc1nc(Nc2cc(C(N)=O)ccc2C)ncc1C(N)=O (racemic) [Compound I-268, Rac-trans-4-((2-acrylamidocyclohexyl)oxy)-2-((5-carbamoyl-2-methylphenyl)amino)pyrimidine-5-carboxamide] | G (proived a mass modification ≦30%) |
| C=CC(=O)N[C@@H]1CCCC[C@H]1Oc1nc(Nc2cc(C(=O)NOC)ccc2C)ncc1C(N)=O (racemic) [Compound I-269, Rac-trans-4-((2-acrylamidocyclohexyl)oxy)-2-((5-(methoxycarbamoyl)-2-methylphenyl)amino)pyrimidine-5-carboxamide] | G (proived a mass modification ≦30%) |
| C=CC(=O)N[C@@H]1CCCC[C@H]1Oc1nc(Nc2cc(C(N)=O)ccc2C)ncc1Cl (racemic) [Compound I-270, Rac-trans-3-((4-((2-acrylamidocyclohexyl)oxy)-5-chloropyrimidin-2-yl)amino)-4-methylbenzamide] | G (proived a mass modification ≦30%) |

The remaining lines, values ahead:

| ERK1 Mass Mod (%) | SMILES |
| --- | --- |
| E (provided a mass modification of ≧70%) | C=CC(=O)Nc1ccccc1Nc1nc(N[C@@H]2CCC[C@H](C(=O)NOC)C2)ncc1C(F)(F)F (racemic) [Compound I-3, Rac-cis-3-((4-((2-acrylamidophenyl)amino)-5-(trifluoromethyl)pyrimidin-2-yl)amino)-N-methoxycyclohexanecarboxamide] |
| E (provided a mass modification of ≧70%) | C=CC(=O)Nc1cc(F)ccc1Nc1nc(N[C@@H]2CCC[C@H](C(N)=O)C2)ncc1C(F)(F)F (racemic) [Compound I-5, Rac-cis-3-((4-((2-acrylamido-4-fluorophenyl)amino)-5-(trifluoromethyl)pyrimidin-2-yl)amino)cyclohexanecarboxamide] |
| E (provided a mass modification of ≧70%) | C/C=C/C(=O)Nc1cc(F)ccc1Nc1nc(N[C@@H]2CCC[C@H](C(N)=O)C2)ncc1C(F)(F)F (racemic) [Compound I-6, Rac-(E)-3-((4-((2-(but-2-enamido)-4-fluorophenyl)amino)-5-(trifluoromethyl)pyrimidin-2-yl)amino)-cis-cyclohexanecarboxamide] |
| E (provided a mass modification of ≧70%) | C=CC(=O)Nc1ccccc1Nc1nc(N[C@@H]2CCC[C@H](C(=O)O)C2)ncc1C(F)(F)F (racemic) [Compound I-14, Rac-3-((4-((2-acrylamidophenyl)amino)-5-(trifluoromethyl)pyrimidin-2-yl)amino)-cis-cyclohexanecarboxylic acid] |
| G (proived a mass modification ≦30%) | CC(=O)N1CCC[C@H](Nc2ncc(C(F)(F)F)c(NC3C4C=CC(C4)C3C(=O)NC#N)n2)C1 (mixture of isomers) [Compound I-25, Rac-3-((2-(((S)-1-acetylpiperidin-3-yl)amino)-5-(trifluoromethyl)pyrimidin-4-yl)-cis-amino)-N-cyanobicyclo[2.2.1]hept-5-ene-2-carboxamide] |
| E (provided a mass modification of ≧70%) | C=CC(=O)Nc1ccccc1Nc1nc(N[C@@H]2CCC[C@H](C(=O)NOCCO)C2)ncc1Cl (racemic) [Compound I-103, Rac-3-((4-((2-acrylamidophenyl)amino)-5-chloropyrimidin-2-yl)amino)-N-(2-hydroxyethoxy)-cis-cyclohexanecarboxamide] |
| E (provided a mass modification of ≧70%) | C=CC(=O)Nc1cc(F)ccc1Nc1nc(N[C@@H]2CCC[C@H](C(N)=O)C2)ncc1Cl (racemic) [Compound I-112, Rac-cis-3-((4-((2-acrylamido-4-fluorophenyl)amino)-5-chloropyrimidin-2-yl)amino)cyclohexanecarboxamide] |
| E (provided a mass modification of ≧70%) | C=CC(=O)Nc1ccccc1Nc1nc(N[C@@H]2CCC[C@H](C(=O)NOC)C2)ncc1Cl (racemic) [Compound I-203, Rac-cis-3-((4-((2-acrylamidophenyl)amino)-5-chloropyrimidin-2-yl)amino)-N-methoxy-cyclohexanecarboxamide] |
| E (provided a mass modification of ≧70%) | C=CC(=O)N[C@@H]1CCCC[C@H]1Nc1nc(Nc2cc(C(N)=O)ccc2C)ncc1Cl (racemic) [Compound I-226, Rac-trans-3-((4-((2-acrylamidocyclohexyl)amino)-5-chloropyrimidin-2-yl)amino)-4-methylbenzamide] |
| G (proived a mass modification ≦30%) | C=CC(=O)N[C@@H]1CCCC[C@H]1Nc1nc(Nc2cc(C(=O)NOC)ccc2C)ncc1C(N)=O (racemic) [Compound I-256, Rac-trans-4-((2-acrylamidocyclohexyl)amino)-2-((5-(methoxycarbamoyl)-2-methylphenyl)amino)pyrimidine-5-carboxamide] |
| E (provided a mass modification of ≧70%) | C=CC(=O)Nc1ccccc1Nc1nc(NC2CCN(C=O)CC2)ncc1C(F)(F)F [Compound I-11, N-(2-((2-((1-formylpiperidin-4-yl)amino)-5-(trifluoromethyl)pyrimidin-4-yl)amino)phenyl)acrylamide] |
| E (provided a mass modification of ≧70%) | C=CC(=O)Nc1ccccc1Nc1nc(NC2CCN(C(C)=O)CC2)ncc1C(F)(F)F [Compound I-12, N-(2-((2-((1-acetylpiperidin-4-yl)amino)-5-(trifluoromethyl)pyrimidin-4-yl)amino)phenyl)acrylamide] |
